The text below walks through data of US5677324A, “Benzopyranes as potassium channel openers” (Pfizer Inc., priority 1993, dated 1997).

For this experiment, the system named is guinea pig tracheal ring preparations. Put plainly: in vitro relaxation of guinea pig tracheal ring preparations (smooth muscle relaxant activity). Type of experiment: cell-based. As to conditions: Cavia porcellus; relaxation of KCl (20 mM)-contracted tracheal strips, Krebs solution, 37° C.; reversal to pretreatment base line = 100 percent relaxation. An excerpt: The compounds of the formula (I) have smooth muscle relaxant activity since they are able to open potassium channels in such tissue. They can be tested for smooth muscle relaxant activity by a method involving measuring the in vitro relaxation of guinea pig tracheal ring preparations as follows:
Male guinea pigs (500-600 g) were killed by a blow to the head and exsanguinated. The trachea was removed, placed in Krebs solution and cleaned. The trachea was slit through the cartilage along it's longitudinal axis and strips consisting of four adjacent cartilage rings were prepared. The strips were each placed in a water-jacketed organ bath (37° C.) containing Krebs solution and tied to a force-displacementtransducer for the measurement of isometric tension responses. The tissues were equilibrated for 60 minutes under a resting load of 1 g and washed every 15 minutes before the start of each experiment.
The composition of the Krebs solution was as follows (millimoles):- NaCl (119); KCl (4.7); NaHCO3 (25); KH2 PO4 (1.2); MgSO4 (1.2); CaCl2 (2.5); glucose (11), and indomethacin (2.8 μM) was added to remove the influence of the endogenous prostanoids. The solution was gassed with 95% O2 /5% CO2 and the temperature was kept constant at 37° C.
After the equilibration period a priming dose of KCl (20 mM) was added to each tissue bath and after a further 20 minutes the tissue was washed. After a further 30 minutes KCl (20 mM) was added to contract each tissue. The relaxant action of a compound of the formula (I) was examined when the maintained contractile response had stabilized. The compounds can be added cumulatively (10^-8 -10^-5 […]) at 5 minute intervals.
The reversal to pretreatment base line was taken as 100 percent relaxation in these studies and concentration-relaxation curves were constructed in order to obtain IC50 values for potency.
A selection of the compounds of the preceding Examples was tested for smooth muscle relaxant activity by the method involving measuring the in vitro relaxation of guinea pig tracheal ring preparations as described on pages 31 and 32 of the description.
Broadly, the IC50 is the midpoint of a concentration-inhibition curve. In the case of `CC1(C)Oc2ccc(-c3nnnn3CCc3ccccc3)cc2[C@@H](N2CCCCC2=O)[C@@H]1O` (relative stereo) [Example 35], the IC50 turned out to be 40 nM.

Take `Cn1nnnc1-c1ccc2c(c1)[C@@H](N1CCCCC1=O)[C@H](O)C(C)(C)O2` (relative stereo) [Example 36]: the IC50 amounted to 68 nM.

With `Cn1nnnc1-c1ccc2c(c1)[C@@H](Oc1ccc(=O)[nH]n1)[C@](C)(O)C(C)(C)O2` [Example 3], the IC50 came to 150 nM.

`CC1(C)Oc2ccc(-c3nnnn3CCc3ccccc3)cc2C(Oc2ccc(=O)[nH]n2)C1(C)O` (centres unmarked) [Example 7]: the IC50 was determined as 440 nM.

Take `CCOC(=O)CCCCn1nnnc1-c1ccc2c(c1)[C@@H](Oc1ccc(O)nn1)[C@](C)(O)C(C)(C)O2` [Example 11, (3S,4R)-3,4-dihydro-6-(1-[4-ethoxycarbonylbut-1-yl]-1H-tetrazol-5-yl)-3-hydroxy-4-(3-hydroxypyridazin-6-yl)oxy-2,2,3-trimethyl-2H-benzo[b]pyran]: the IC50 was 120 nM.
